Test results as given in US9079929B2, “Substituted tetrahydroisoquinoline compounds as factor XIa inhibitors” (priority 2011, dated 2015).
Structures can show the parent of a compound that is named as a salt.

Target: human Factor XIa (Homo sapiens (Human), UniProt P03951)
Assay: Factor XIa enzyme inhibition assay (chromogenic substrate S-2366)
Format: biochemical
Settings: purified human Factor XIa, substrate S-2366, pH 7.4
Description: The results of this assay are expressed as the inhibitory constant, Ki.
Values of Ki were determined by allowing the protease to react with the substrate in the presence of the inhibitor. Reactions were allowed to go for periods of 20-180 minutes (depending on the protease) and the velocities (rate of absorbance or fluorescence change versus time) were measured. The following relationships were used to calculate Ki values:
vs/vo=A+((B−A)/1+((IC50/(I)n))); and […]

human Factor XIa, sequence (P03951 whole entry, looked up): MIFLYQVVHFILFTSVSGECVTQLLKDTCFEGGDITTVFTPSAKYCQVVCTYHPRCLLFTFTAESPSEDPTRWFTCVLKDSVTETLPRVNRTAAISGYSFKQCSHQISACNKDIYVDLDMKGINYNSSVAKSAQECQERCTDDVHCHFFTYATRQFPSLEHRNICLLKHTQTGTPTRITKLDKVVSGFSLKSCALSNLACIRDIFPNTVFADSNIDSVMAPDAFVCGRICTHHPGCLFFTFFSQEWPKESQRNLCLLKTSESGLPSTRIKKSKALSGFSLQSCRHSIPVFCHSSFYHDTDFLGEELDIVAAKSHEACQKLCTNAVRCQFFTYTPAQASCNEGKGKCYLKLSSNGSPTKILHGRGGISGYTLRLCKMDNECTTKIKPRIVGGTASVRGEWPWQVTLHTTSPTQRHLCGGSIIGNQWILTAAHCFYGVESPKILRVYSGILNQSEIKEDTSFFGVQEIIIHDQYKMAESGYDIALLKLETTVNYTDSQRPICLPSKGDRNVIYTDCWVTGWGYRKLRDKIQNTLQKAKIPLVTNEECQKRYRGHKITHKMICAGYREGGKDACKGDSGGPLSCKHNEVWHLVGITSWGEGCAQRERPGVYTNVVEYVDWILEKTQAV
human Factor XIa, sequence (P03951 whole entry partner, looked up): as the sequence (P03951 whole entry, looked up) above

SMILES | Ki [nM]
COCCNC(=O)c1cccc2c1CCN(C(=O)/C=C/c1cc(Cl)ccc1-n1cnnn1)C2C(=O)Nc1ccc(C(=O)O)cc1 (stereo not drawn) [Example 3, (E)-4-(2-(3-(5-Chloro-2-(1H-tetrazol-1-yl)phenyl)acryloyl)-5-(2-methoxyethylcarbamoyl)-1,2,3,4-tetrahydroisoquinoline-1-carboxamido)benzoic acid] | 21.3
CS(=O)(=O)Nc1cccc2c1CCN(C(=O)/C=C/c1c(-n3cnnn3)ccc(Cl)c1F)C2C(=O)Nc1ccc(C(=O)O)cc1 (stereo not drawn) [Example 9, (E)-4-(2-(3-(3-chloro-2-fluoro-6-(1H-tetrazol-1-yl)phenyl)acryloyl)-5-(methylsulfonamido)-1,2,3,4-tetrahydroisoquinoline-1-carboxamido)benzoic acid] | < 5
CCOC(=O)CCCNC(=O)c1cccc2c1CCN(C(=O)/C=C/c1c(-n3cnnn3)ccc(Cl)c1F)C2C(=O)Nc1ccc(F)cc1 (stereo not drawn) [Example 14] | 580
CCOC(=O)[C@H]1CCCN(C(=O)c2cccc3c2CCN(C(=O)/C=C/c2c(-n4cnnn4)ccc(Cl)c2F)C3C(=O)Nc2ccc(NC(=O)OC)cc2)C1 (stereo partly drawn) [Example 16] | 332
CC(C)(C)OC(=O)c1ccc(NC(=O)C2c3cccc(C(=O)N4CCN(C(=O)OC(C)(C)C)CC4)c3CCN2C(=O)/C=C/c2c(-n3cnnn3)ccc(Cl)c2F)cc1 (stereo not drawn) [Example 24] | 170
O=C(O)c1ccc(NC(=O)C2c3cccc(C(=O)N4CCNCC4)c3CCN2C(=O)/C=C/c2c(-n3cnnn3)ccc(Cl)c2F)cc1 (stereo not drawn) [Example 29] | 553
O=C(O)c1ccc(NC(=O)C2c3cccc(C(=O)N4CCNCC4)c3CCN2C(=O)/C=C/c2c(-n3cnnn3)ccc(Cl)c2F)cc1 (stereo not drawn) [Example 30] | < 5
COc1ccc(-c2cccc3c2CCN(C(=O)/C=C/c2c(-n4cnnn4)ccc(Cl)c2F)C3C(=O)Nc2ccc(C(=O)O)cc2)c(Cl)c1 (stereo not drawn) [Example 47, (E)-4-(2-(3-(3-chloro-2-fluoro-6-(1H-tetrazol-1-yl)phenyl)acryloyl)-5-(2-chloro-4-methoxyphenyl)-1,2,3,4-tetrahydroisoquinoline-1-carboxamido)benzoic acid] | < 5
COC(=O)Nc1ccc(-c2cccc3c2CCN(C(=O)/C=C/c2c(-n4cnnn4)ccc(Cl)c2F)[C@H]3C(=O)Nc2ccc(F)cc2)cc1 [Example 50, (R,E)-Methyl 4-(2-(3-(3-chloro-2-fluoro-6-(1H-tetrazol-1-yl)phenyl)acryloyl)-1-(4-fluorophenylcarbamoyl)-1,2,3,4-tetrahydroisoquinolin-5-yl)phenylcarbamate] | 3370
CNC(=O)c1ccc(-c2cccc3c2CCN(C(=O)/C=C/c2c(-n4cnnn4)ccc(Cl)c2F)C3C(=O)NCC(=O)OC)cc1 (stereo not drawn) [Example 61] | 342
CC[C@H](C)NC(=O)C1c2cccc(-c3ccc(C(=O)NC)cc3)c2CCN1C(=O)/C=C/c1c(-n2cnnn2)ccc(Cl)c1F (stereo partly drawn) [Example 65] | 49.2
CNC(=O)c1ccc(-c2cccc3c2CCN(C(=O)/C=C/c2c(-n4cnnn4)ccc(Cl)c2F)C3C(=O)NCc2nccn2C)cc1 (stereo not drawn) [Example 66] | 534
CNC(=O)c1ccc(-c2cccc3c2CCN(C(=O)/C=C/c2c(-n4cnnn4)ccc(Cl)c2F)C3C(=O)Nc2ccc(C(=O)O)cc2)cn1 (stereo not drawn) [Example 78] | < 5
CNC(=O)c1ccc(-c2cccc3c2CCN(C(=O)/C=C/c2c(-n4cnnn4)ccc(Cl)c2F)C3C(=O)Nc2ccc3c(c2)CN=N3)cc1 (stereo not drawn) [Example 80] | 20.1
CN(C)CCNC(=O)c1ccc(-c2cccc3c2CCN(C(=O)/C=C/c2c(-n4cnnn4)ccc(Cl)c2F)C3C(=O)Nc2ccc(C(=O)OC(C)(C)C)cc2)cc1 (stereo not drawn) [Example 89] | < 5
CN(C)CCNC(=O)c1ccc(-c2cccc3c2CCN(C(=O)/C=C/c2c(-n4cnnn4)ccc(Cl)c2F)[C@H]3C(=O)Nc2ccc(C(=O)OCCN(C)C)cc2)cc1 [Example 93, (R,E)-2-(dimethylamino)ethyl 4-(2-(3-(3-chloro-2-fluoro-6-(1H-tetrazol-1-yl)phenyl)acryloyl)-5-(4-((2-(dimethylamino)ethyl)carbamoyl)phenyl)-1,2,3,4-tetrahydroisoquinoline-1-carboxamido)benzoate; bis-TFA salt] | 951
CN(C)CCNC(=O)c1ccc(-c2cccc3c2CCN(C(=O)/C=C/c2c(-n4cnnn4)ccc(Cl)c2F)[C@H]3C(=O)Nc2ccc(C(=O)OCc3ccccn3)cc2)cc1 [Example 98] | 132
O=C(O)c1ccc(NC(=O)C2c3cccc(OC4CCNCC4)c3CCN2C(=O)/C=C/c2c(-n3cnnn3)ccc(Cl)c2F)cc1 (stereo not drawn) [Example 108, (E)-4-(2-(3-(3-Chloro-2-fluoro-6-(1H-tetrazol-1-yl)phenyl)acryloyl)-5-(piperidin-4-yloxy)-1,2,3,4-tetrahydroisoquinoline-1-carboxamido)benzoic acid, TFA salt] | < 5
CC(=O)c1ccc(Cl)c(F)c1/C=C/C(=O)N1CCc2c(-c3ccc(C(N)=O)cc3)cccc2[C@@H]1C(=O)Nc1ccc(C(=O)O)cc1 [Example 120] | 291
CN(C)CCOc1cccc2c1CCN(C(=O)/C=C/c1c(-n3cnnn3)ccc(Cl)c1F)C2C(=O)Nc1ccc(C(=O)O)cc1 (stereo not drawn) [Example 132, (E)-4-(2-(3-(3-chloro-2-fluoro-6-(1H-tetrazol-1-yl)phenyl)acryloyl)-5-(2-(dimethylamino)ethoxy)-1,2,3,4-tetrahydroisoquinoline-1-carboxamido)benzoic acid, TFA salt] | < 5
CC(=O)c1ccc(Cl)c(F)c1/C=C/C(=O)N1CCc2c(O)cccc2C1C(=O)Nc1ccc(C(=O)O)cc1 (stereo not drawn) [Example 146, (E)-4-(2-(3-(6-acetyl-3-chloro-2-fluorophenyl)acryloyl)-5-hydroxy-1,2,3,4-tetrahydroisoquinoline-1-carboxamido)benzoic acid] | 24.8
CC(=O)c1ccc(Cl)c(F)c1/C=C/C(=O)N1CCc2c(-c3ccc(C(=O)NCCN(C)C)cc3)cccc2[C@@H]1C(=O)Nc1ccc(C(=O)O)cc1 [Example 150, (R,E)-4-(2-(3-(6-Acetyl-3-chloro-2-fluorophenyl)acryloyl)-5-(4-(2-(dimethylamino)ethylcarbamoyl)phenyl)-1,2,3,4-tetrahydroisoquinoline-1-carboxamido)benzoic acid, TFA salt] | 37
CCOC(=O)c1ccc(NC(=O)C2c3cccc(OCCC4CCN(C)CC4)c3CC(C)(C)N2C(=O)/C=C/c2c(-n3cnnn3)ccc(Cl)c2F)cc1 (stereo not drawn) [Example 152, (E)-ethyl 4-(2-(3-(3-chloro-2-fluoro-6-(1H-tetrazol-1-yl)phenyl)acryloyl)-3,3-dimethyl-5-(2-(1-methylpiperidin-4-yl)ethoxy)-1,2,3,4-tetrahydroisoquinoline-1-carboxamido)benzoate, TFA salt] | 100
CCOC(=O)c1ccc(NC(=O)[C@H]2c3cccc(OCCC4CCNCC4)c3CCN2C(=O)/C=C/c2c(-n3cnnn3)ccc(Cl)c2F)cc1 [Example 160, (R,E)-ethyl 4-(2-(3-(3-chloro-2-fluoro-6-(1H-tetrazol-1-yl)phenyl)-acryloyl)-5-(2-(piperidin-4-yl)ethoxy)-1,2,3,4-tetrahydroisoquinoline-1-carboxamido)benzoate, TFA salt] | 3530
Cn1nccc1-c1cccc2c1CCN(C(=O)/C=C/c1c(-n3cnnn3)ccc(Cl)c1F)C2C(=O)Nc1ccc(C(=O)O)cc1 (stereo not drawn) [Example 173, (E)-4-(2-(3-(3-Chloro-2-fluoro-6-(1H-tetrazol-1-yl)phenyl)acryloyl)-5-(1-methyl-1H-pyrazol-5-yl)-1,2,3,4-tetrahydroisoquinoline-1-carboxamido)benzoic acid] | < 5
CCOC(=O)c1ccc(NC(=O)C2c3cccc(-c4ccc(C(=O)NC)nc4)c3CCN2C(=O)/C=C/c2c(-n3cnnn3)ccc(Cl)c2F)cc1 (stereo not drawn) [Example 188] | 3860
CN(C)c1ccc(-c2cccc3c2CCN(C(=O)/C=C/c2c(-n4cnnn4)ccc(Cl)c2F)C3C(=O)Nc2ccc(C(=O)O)cc2)cn1 (stereo not drawn) [Example 191] | < 5
